Measurements from PubChem BioAssay AID1963967 (Molecular Pharmacology Branch, DTP, NCI, 2024).

Test system: 855422-203-R-J1-PDC spheroids with HUVEC/MSC, viability
Assay: Anticancer human tumor 855422-203-R-J1-PDC patient-derived bladder carcinoma cell line growth inhibition [PI3K]
Conditions: for IC50: curve of first compound; for viability, T/C: stronger effect = lower value
Method in brief: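 Targeted small molecules plus PI3K inhibitors, half-log dose series from Cmax (default top 10 microM), were applied to heterotypic spheroids of cancer cells with HUVEC and MSCs. Viability indicated growth inhibition.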

[1] = second compound 0.00316 µM, first compound 0.000316 µM
[2] = second compound 0.00316 µM, first compound 0.001 µM
[3] = second compound 0.00316 µM, first compound 0.00316 µM
[4] = second compound 0.00316 µM, first compound 0.01 µM
[5] = second compound 0.00316 µM, first compound 0.0316 µM
[6] = second compound 0.00316 µM, first compound 0.1 µM
[7] = second compound 0.01 µM, first compound 0.000316 µM
[8] = second compound 0.01 µM, first compound 0.001 µM
[9] = second compound 0.01 µM, first compound 0.00316 µM
[10] = second compound 0.01 µM, first compound 0.01 µM
[11] = second compound 0.01 µM, first compound 0.0316 µM
[12] = second compound 0.01 µM, first compound 0.1 µM
[13] = second compound 0.0316 µM, first compound 0.000316 µM
[14] = second compound 0.0316 µM, first compound 0.001 µM
[15] = second compound 0.0316 µM, first compound 0.00316 µM
[16] = second compound 0.0316 µM, first compound 0.01 µM
[17] = second compound 0.0316 µM, first compound 0.0316 µM
[18] = second compound 0.0316 µM, first compound 0.1 µM
[19] = second compound 0.1 µM, first compound 0.000316 µM
[20] = second compound 0.1 µM, first compound 0.001 µM
[21] = second compound 0.1 µM, first compound 0.00316 µM
[22] = second compound 0.1 µM, first compound 0.01 µM
[23] = second compound 0.1 µM, first compound 0.0316 µM
[24] = second compound 0.1 µM, first compound 0.1 µM
[25] = second compound 0.316 µM, first compound 0.000316 µM
[26] = second compound 0.316 µM, first compound 0.001 µM
[27] = second compound 0.316 µM, first compound 0.00316 µM
[28] = second compound 0.316 µM, first compound 0.01 µM
[29] = second compound 0.316 µM, first compound 0.0316 µM
[30] = second compound 0.316 µM, first compound 0.1 µM
[31] = second compound 1 µM, first compound 0.000316 µM
[32] = second compound 1 µM, first compound 0.001 µM
[33] = second compound 1 µM, first compound 0.00316 µM
[34] = second compound 1 µM, first compound 0.01 µM
[35] = second compound 1 µM, first compound 0.0316 µM
[36] = second compound 1 µM, first compound 0.1 µM
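Also: agents incubated with spheroids for one week before read-out.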
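For viability, T/C in this document: 100% = DMSO vehicle-treated control wells.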

Question: For `CC(C)n1nc(-c2ccc3oc(N)nc3c2)c2c(N)ncnc21` + CC(Nc1ccc2c(c1)OCCn1cc(N3C(=O)OCC3C(F)F)nc1-2)C(N)=O, which IC50 (second compound 0.00316 µM) is on record?
Answer: Its IC50 is 51.8 nM.

Question: And the IC50 (second compound 0.01 µM)?
Answer: The IC50 was 43.9 nM.

Question: What about the IC50 (second compound 0.0316 µM) of the same compound?
Answer: Its IC50 is 38 nM.

Question: What about the IC50 (second compound 0.1 µM) of the same compound?
Answer: Its IC50 is 26.8 nM.

Question: And the IC50 (second compound 0.316 µM)?
Answer: The IC50 was 6.08 nM.

Question: And the IC50 (second compound 1 µM)?
Answer: The IC50 was under 0.316 nM.

Question: And the viability, T/C [1]?
Answer: The viability, T/C was 113%.

Question: What about the viability, T/C [2] of the same compound?
Answer: The viability, T/C was 90.1%.

Question: And the viability, T/C [3]?
Answer: The viability, T/C was 108%.

Question: What about the viability, T/C [4] of the same compound?
Answer: The viability, T/C was 92.3%.

Question: And the viability, T/C [5]?
Answer: Its viability, T/C is 74.2%.

Question: What about the viability, T/C [6] of the same compound?
Answer: The viability, T/C was 18.3%.

Question: What about the viability, T/C [7] of the same compound?
Answer: The viability, T/C was 87.7%.

Question: And the viability, T/C [8]?
Answer: The viability, T/C was 92.9%.

Question: And the viability, T/C [9]?
Answer: The viability, T/C was 98.7%.

Question: What about the viability, T/C [10] of the same compound?
Answer: Its viability, T/C is 81.4%.

Question: What about the viability, T/C [11] of the same compound?
Answer: The viability, T/C was 63.1%.

Question: What about the viability, T/C [12] of the same compound?
Answer: Its viability, T/C is 19%.

Question: And the viability, T/C [13]?
Answer: The viability, T/C was 91%.

Question: What about the viability, T/C [14] of the same compound?
Answer: Its viability, T/C is 84.4%.

Question: What about the viability, T/C [15] of the same compound?
Answer: Its viability, T/C is 82%.

Question: What about the viability, T/C [16] of the same compound?
Answer: The viability, T/C was 72%.

Question: What about the viability, T/C [17] of the same compound?
Answer: The viability, T/C was 59.6%.

Question: And the viability, T/C [18]?
Answer: Its viability, T/C is 14.4%.

Question: And the viability, T/C [19]?
Answer: Its viability, T/C is 71.8%.

Question: And the viability, T/C [20]?
Answer: The viability, T/C was 72.7%.

Question: And the viability, T/C [21]?
Answer: The viability, T/C was 78.7%.

Question: What about the viability, T/C [22] of the same compound?
Answer: The viability, T/C was 69.9%.

Question: What about the viability, T/C [23] of the same compound?
Answer: Its viability, T/C is 46.6%.

Question: What about the viability, T/C [24] of the same compound?
Answer: The viability, T/C was 11.4%.

Question: And the viability, T/C [25]?
Answer: The viability, T/C was 59.3%.

Question: What about the viability, T/C [26] of the same compound?
Answer: Its viability, T/C is 55.9%.

Question: And the viability, T/C [27]?
Answer: The viability, T/C was 58.7%.

Question: And the viability, T/C [28]?
Answer: Its viability, T/C is 43.3%.

Question: What about the viability, T/C [29] of the same compound?
Answer: The viability, T/C was 32.7%.

Question: What about the viability, T/C [30] of the same compound?
Answer: The viability, T/C was 7.57%.

Question: And the viability, T/C [31]?
Answer: Its viability, T/C is 39.8%.

Question: What about the viability, T/C [32] of the same compound?
Answer: The viability, T/C was 38.4%.

Question: And the viability, T/C [33]?
Answer: Its viability, T/C is 36%.

Question: What about the viability, T/C [34] of the same compound?
Answer: The viability, T/C was 34%.

Question: And the viability, T/C [35]?
Answer: The viability, T/C was 24.1%.

Question: What about the viability, T/C [36] of the same compound?
Answer: Its viability, T/C is 6.71%.

Question: `Cn1ncnc1[C@H]1c2n[nH]c(=O)c3cc(F)cc(c23)N[C@@H]1c1ccc(F)cc1` + COc1c(OCCCN2CCOCC2)ccc2c3n(c(=NC(=O)c4cnc(N)nc4)nc12)CCN3 was tested. Which IC50 (second compound 0.00316 µM) did it give?
Answer: Its IC50 is over 100 nM.

Question: What about the IC50 (second compound 0.01 µM) of the same compound?
Answer: Its IC50 is over 100 nM.

Question: What about the IC50 (second compound 0.0316 µM) of the same compound?
Answer: The IC50 was over 100 nM.

Question: What about the IC50 (second compound 0.1 µM) of the same compound?
Answer: Its IC50 is under 0.316 nM.

Question: What about the IC50 (second compound 0.316 µM) of the same compound?
Answer: The IC50 was under 0.316 nM.

Question: And the IC50 (second compound 1 µM)?
Answer: The IC50 was under 0.316 nM.

Question: And the viability, T/C [1]?
Answer: The viability, T/C was 97.2%.

Question: And the viability, T/C [2]?
Answer: Its viability, T/C is 98%.

Question: And the viability, T/C [3]?
Answer: The viability, T/C was 98.6%.

Question: And the viability, T/C [4]?
Answer: The viability, T/C was 90.5%.

Question: What about the viability, T/C [5] of the same compound?
Answer: The viability, T/C was 90.8%.

Question: And the viability, T/C [6]?
Answer: The viability, T/C was 91.7%.

Question: And the viability, T/C [7]?
Answer: The viability, T/C was 88.8%.

Question: What about the viability, T/C [8] of the same compound?
Answer: The viability, T/C was 80.7%.

Question: What about the viability, T/C [9] of the same compound?
Answer: Its viability, T/C is 78%.

Question: And the viability, T/C [10]?
Answer: The viability, T/C was 97.2%.

Question: And the viability, T/C [11]?
Answer: The viability, T/C was 94.6%.

Question: And the viability, T/C [12]?
Answer: The viability, T/C was 92.2%.

Question: What about the viability, T/C [13] of the same compound?
Answer: Its viability, T/C is 65.5%.

Question: What about the viability, T/C [14] of the same compound?
Answer: Its viability, T/C is 62.2%.

Question: What about the viability, T/C [15] of the same compound?
Answer: Its viability, T/C is 62.2%.

Question: What about the viability, T/C [16] of the same compound?
Answer: The viability, T/C was 52.7%.

Question: And the viability, T/C [17]?
Answer: The viability, T/C was 52.7%.

Question: And the viability, T/C [18]?
Answer: Its viability, T/C is 53.1%.

Question: What about the viability, T/C [19] of the same compound?
Answer: Its viability, T/C is 24.2%.

Question: What about the viability, T/C [20] of the same compound?
Answer: Its viability, T/C is 25.9%.

Question: And the viability, T/C [21]?
Answer: Its viability, T/C is 29.1%.

Question: And the viability, T/C [22]?
Answer: The viability, T/C was 27.5%.

Question: What about the viability, T/C [23] of the same compound?
Answer: The viability, T/C was 22.9%.

Question: And the viability, T/C [24]?
Answer: The viability, T/C was 24.5%.

Question: What about the viability, T/C [25] of the same compound?
Answer: Its viability, T/C is 9.77%.

Question: And the viability, T/C [26]?
Answer: Its viability, T/C is 8.64%.

Question: And the viability, T/C [27]?
Answer: The viability, T/C was 8.11%.

Question: What about the viability, T/C [28] of the same compound?
Answer: The viability, T/C was 8.04%.

Question: And the viability, T/C [29]?
Answer: Its viability, T/C is 7.3%.

Question: What about the viability, T/C [30] of the same compound?
Answer: The viability, T/C was 8.75%.

Question: What about the viability, T/C [31] of the same compound?
Answer: Its viability, T/C is 4.95%.

Question: What about the viability, T/C [32] of the same compound?
Answer: Its viability, T/C is 3.74%.

Question: And the viability, T/C [33]?
Answer: The viability, T/C was 3.02%.

Question: What about the viability, T/C [34] of the same compound?
Answer: The viability, T/C was 3.29%.

Question: And the viability, T/C [35]?
Answer: Its viability, T/C is 4.31%.

Question: And the viability, T/C [36]?
Answer: Its viability, T/C is 3.2%.
